Laboratory results published in paper PMC8474119, “Discovery and SAR Evolution of Pyrazole Azabicyclo[3.2.1]octane Sulfonamides as a Novel Class of Non-Covalent N-Acylethanolamine-Hydrolyzing Acid Amidase (NAAA) Inhibitors for Oral Administration” (Journal of Medicinal Chemistry, 2021).

How the values were obtained:
Assay type in all cases: in vitro ADME
[1] = Liver microsomal stability assay (NADPH), mouse; settings: for half-life at 4.6 μM: male, CD1, pH 7.5, mouse liver microsomes, read-out: LM_NADPH t1/2; for % compound remaining at last time-point, LM_NADPH: mouse liver microsomes, 4.6 μM, 60 min
Procedure: Pooled CD1 mouse (M1000, male), IGS Sprague-Dawley rat (R1000, male), and human (H1000, male) liver microsomes were purchased from SEKISUI XenoTech. 10 mM DMSO stock solution of the test compound (39 or 50) was preincubated at 37 °C for 15 min with mouse, rat, or human liver microsomes in 0.1 M Tris-HCl buffer (pH 7.5) with 10% DMSO. The final concentration was 4.6 μM. After preincubation, the cofactor (NADPH) was added to the incubation mixture, and the incubation was continued at 37 °C for 1 h. At each time point (0, 5, 15, 30, and 60 min), 30 μL of incubation mixture was diluted with 200 μL cold CH3CN spiked with 200 nM of an appropriate internal standard, followed by centrifugation at 3.270g for 15 min. The supernatant was further diluted with H2O (1:1) for analysis. A reference incubation mixture of each specie (microsomes without cofactors) was prepared for each test compound and analyzed at t = 0 and 60 min in order to verify the compound stability in the matrix. The two time points were diluted as for the time points of the incubation mixture above. The supernatants were analyzed by LC–MS/MS on a Waters ACQUITY UPLC-MS TQD system consisting of a triple quadrupole detector (TQD) mass spectrometer equipped with an electrospray ionization interface and a photodiode array eλ detector (PDA) from Waters Inc. (Milford, MA, USA). Electrospray ionization was applied in positive mode. Compound-dependent parameters as MRM transitions and collision energy were developed for each compound. The analyses were run on an ACQUITY UPLC BEH C18 (50 × 2.1 mm ID, particle size 1.7 μm) with a VanGuard BEH C18 precolumn (5 × 2.1 mm ID, particle size 1.7 μm) at 40 °C, using H2O + 0.1% HCOOH (A) and CH3CN + 0.1% HCOOH (B) as the mobile phase. The percentage of test compound remaining at each time point relative to t = 0 was calculated by the response factor on the basis of the internal standard peak area. The percentage of test compound versus time was plotted and fitted by GraphPad Prism (GraphPad Software, Version 5 for Windows, CA, USA, www.graphpad.com) to estimate the compound’s half-life (t1/2), which was reported as mean value along with the standard deviation (n = 3).

[2] = Liver microsomal stability assay (NADPH), rat; settings: male, Sprague-Dawley, pH 7.5, rat liver microsomes, read-out: LM_NADPH t1/2
Procedure: Pooled CD1 mouse (M1000, male), IGS Sprague-Dawley rat (R1000, male), and human (H1000, male) liver microsomes were purchased from SEKISUI XenoTech. 10 mM DMSO stock solution of the test compound (39 or 50) was preincubated at 37 °C for 15 min with mouse, rat, or human liver microsomes in 0.1 M Tris-HCl buffer (pH 7.5) with 10% DMSO. The final concentration was 4.6 μM. After preincubation, the cofactor (NADPH) was added to the incubation mixture, and the incubation was continued at 37 °C for 1 h. At each time point (0, 5, 15, 30, and 60 min), 30 μL of incubation mixture was diluted with 200 μL cold CH3CN spiked with 200 nM of an appropriate internal standard, followed by centrifugation at 3.270g for 15 min. […] A reference incubation mixture of each specie (microsomes without cofactors) was prepared for each test compound and analyzed at t = 0 and 60 min in order to verify the compound stability in the matrix. […] The supernatants were analyzed by LC–MS/MS on a Waters ACQUITY UPLC-MS TQD system consisting of a triple quadrupole detector (TQD) mass spectrometer equipped with an electrospray ionization interface and a photodiode array eλ detector (PDA) from Waters Inc. (Milford, MA, USA). […] The percentage of test compound remaining at each time point relative to t = 0 was calculated by the response factor on the basis of the internal standard peak area. […]

[3] = Plasma stability assay, mouse plasma; settings: for % compound remaining at last time-point, plasma: 2.0 μM, 120 min; for half-life at 2 μM: n ≥ 3, read-out: plasma t1/2
Procedure: 10 mM DMSO stock solution of test compound (39 or 50) was diluted 50-fold with DMSO/H2O (1:1) and incubated at 37 °C for 2 h with mouse or rat plasma added with 5% DMSO (preheated at 37 °C for 10 min). The final compound’s concentration was 2.0 μM. At each time point (0, 5, 15, 30, 60, and 120 min), 50 μL of incubation mixture was diluted with 150 μL cold CH3CN spiked with 200 nM of warfarin, as the internal standard, followed by centrifugation at 3.270g for 20 min. The supernatant was further diluted with H2O (1:1) and analyzed by LC–MS/MS on a Waters ACQUITY UPLC-MS TQD system consisting of a triple quadrupole detector (TQD) mass spectrometer equipped with an electrospray ionization interface and a photodiode array eλ detector (PDA) from Waters Inc. (Milford, MA, USA). Electrospray ionization was applied in positive mode. Compound-dependent parameters as MRM transitions and collision energy were developed for each compound. The analyses were run on an ACQUITY UPLC BEH C18 (50 × 2.1 mm ID, particle size 1.7 μm) with a VanGuard BEH C18 precolumn (5 × 2.1 mm ID, particle size 1.7 μm) at 40 °C, using H2O + 0.1% HCOOH (A) and CH3CN + 0.1% HCOOH (B) as the mobile phase. The percentage of the test compound remaining at each time point relative to t = 0 was calculated by the response factor on the basis of the internal standard peak area. The percentage of test compound versus time was plotted and fitted by GraphPad Prism (GraphPad Software, Version 5 for Windows, CA, USA, www.graphpad.com) to estimate the compound’s half-life (t1/2), which was reported as mean value along with the standard deviation (n = 3).

Row | SMILES | half-life at 4.6 μM [1] [min] | % compound remaining at last time-point, LM_NADPH [1] [%] | half-life at 1 h, 4.6 µM [2] [min] | % compound remaining at last time-point, plasma [3] [%] | half-life at 2 μM [3] [min]
1 | CCOCc1cnc(O[C@H]2C[C@H]3CC[C@@H](C2)N3S(=O)(=O)c2c(C)n[nH]c2C)cn1 [Compound 50, (1R,3r,5S)-8-((3,5-Dimethyl-1H-pyrazol-4-yl)sulfonyl)-3-((5-(ethoxymethyl)pyrazin-2-yl)oxy)-8-azabicyclo[3.2.1]octane] | > 60 | 55 | 48 | 95 | > 120
2 | CCCCc1ccc(O[C@H]2C[C@H]3CC[C@@H](C2)N3S(=O)(=O)c2c(C)n[nH]c2C)cc1 [Compound 39, (1R,3r,5S)-3-(4-Butylphenoxy)-8-((3,5-dimethyl-1H-pyrazol-4-yl)sulfonyl)-8-azabicyclo[3.2.1]octane] | > 60 | 93 | 13 | 93 | > 120
